Results from patent US11840524B2, “4-substituted phenyl-1,3,5-triazine derivatives as modulators of TrK receptors” (ALZECURE PHARMA AB, priority 2018, dated 2023).

Experiments:
TrkB = target: T1, TrkB (Homo sapiens, UniProt Q16620); assay: Cell-based Enzyme Fragment Complementation (EFC) assay, U2OS cells over-expressing TrkB; settings: compound pre-mixed with ligand, final ligand concentration 10 ng/mL, 3 hours at room temperature, read-out: TrkB potency expressed as EC50
T1 construct: expressed in transfected cells; host or cells: U2OS
Text: (§1) A high throughput cell-based screen has been used to identify positive modulators of TrkA, TrkB and TrkC. The screen involves the use of cell-based assay overexpressing TrkA, TrkB or TrkC. The purpose of the assay is to identify compounds that modulate neurotrophin signalling (Forsell et al 2012). The assay can be used in inhibitor mode using a high concentration of ligand, in modulator mode using an intermediate concentration and in agonist mode using a low concentration of ligand.
(§2) The assay uses Enzyme Fragment Complementation (EFC) technique, which is a proximity-based assay. Briefly, cells used in this assay over-express two fusion proteins, i.e. the receptor, which can be one of TrkA, TrkB or TrkC fused to a small peptide of beta-galactosidase and an adaptor protein, i.e. SHC1 (or any other Trk-adaptor protein) fused to the major part of beta-galactosidase. […] The proximity between the small activating peptide on the receptor and the major part of beta-galactosidase on the adaptor protein leads to an active beta-galactosidase enzyme. The activation of the receptor is quantified by measuring the amount of active beta-galactosidase by its conversion of a non-luminescent substrate into a luminescent product.
(§3) U2OS-cells, over-expressing TrkA or TrkB or TrkC, were plated in 96- or 384-well plates and incubated overnight. On the following day, test compound was pre-mixed with ligand (NGF) and the ligand-compound mixture is then added to the cells to yield a final ligand concentration of 10 ng/mL. After 3 hours of incubation at room temperature, the incubation is stopped by the addition of a beta-galactosidase substrate mixture containing detergents. The substrate mixture is incubated for 60 minutes at ambient temperature. The luminescence is thereafter read by the use of a plate reader.

TrkA = target: T2, TrkA (Homo sapiens, UniProt P04629); assay: Cell-based Enzyme Fragment Complementation (EFC) assay, U2OS cells over-expressing TrkA; settings: compound pre-mixed with ligand (NGF), final ligand concentration 10 ng/mL, 3 hours at room temperature, read-out: TrkA potency expressed as EC50
T2 construct: expressed in transfected cells; host or cells: U2OS
Text: as §1, §2, §3

TrkC = target: T3, TrkC (Homo sapiens, UniProt Q16288); assay: Cell-based Enzyme Fragment Complementation (EFC) assay, U2OS cells over-expressing TrkC; settings: compound pre-mixed with ligand, final ligand concentration 10 ng/mL, 3 hours at room temperature, read-out: TrkC potency expressed as EC50
T3 construct: expressed in transfected cells; host or cells: U2OS
Text: as §1, §2
U2OS-cells, over-expressing TrkA or TrkB or TrkC, were plated in 96- or 384-well plates and incubated overnight. […] The luminescence is thereafter read by the use of a plate reader.

[1] = test system: ephrin type-B receptor 2 (EphB2); settings: Suzuki et al., FEBS Open Bio 2016; cited from earlier work

T1 sequence (Q16620 32-822): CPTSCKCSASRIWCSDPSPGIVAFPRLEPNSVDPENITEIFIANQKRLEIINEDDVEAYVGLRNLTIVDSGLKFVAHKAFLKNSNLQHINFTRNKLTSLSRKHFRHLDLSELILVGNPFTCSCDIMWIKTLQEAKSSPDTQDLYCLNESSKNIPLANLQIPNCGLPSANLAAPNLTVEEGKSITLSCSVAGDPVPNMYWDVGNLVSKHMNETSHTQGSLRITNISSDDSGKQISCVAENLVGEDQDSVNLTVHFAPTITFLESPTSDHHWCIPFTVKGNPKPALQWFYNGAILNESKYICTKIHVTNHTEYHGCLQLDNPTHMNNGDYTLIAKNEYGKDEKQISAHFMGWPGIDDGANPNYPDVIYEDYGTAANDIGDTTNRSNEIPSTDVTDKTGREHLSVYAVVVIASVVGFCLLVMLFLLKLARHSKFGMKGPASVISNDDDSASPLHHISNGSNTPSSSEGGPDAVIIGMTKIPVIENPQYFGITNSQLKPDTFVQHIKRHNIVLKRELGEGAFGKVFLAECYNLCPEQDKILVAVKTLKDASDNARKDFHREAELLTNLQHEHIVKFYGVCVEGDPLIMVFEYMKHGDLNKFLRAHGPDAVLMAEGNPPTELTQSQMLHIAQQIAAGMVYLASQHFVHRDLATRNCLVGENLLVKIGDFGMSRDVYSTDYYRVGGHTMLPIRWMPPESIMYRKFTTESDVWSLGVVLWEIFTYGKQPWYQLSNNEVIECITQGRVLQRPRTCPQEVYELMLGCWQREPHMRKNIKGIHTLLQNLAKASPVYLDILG
T2 sequence (P04629 33-796): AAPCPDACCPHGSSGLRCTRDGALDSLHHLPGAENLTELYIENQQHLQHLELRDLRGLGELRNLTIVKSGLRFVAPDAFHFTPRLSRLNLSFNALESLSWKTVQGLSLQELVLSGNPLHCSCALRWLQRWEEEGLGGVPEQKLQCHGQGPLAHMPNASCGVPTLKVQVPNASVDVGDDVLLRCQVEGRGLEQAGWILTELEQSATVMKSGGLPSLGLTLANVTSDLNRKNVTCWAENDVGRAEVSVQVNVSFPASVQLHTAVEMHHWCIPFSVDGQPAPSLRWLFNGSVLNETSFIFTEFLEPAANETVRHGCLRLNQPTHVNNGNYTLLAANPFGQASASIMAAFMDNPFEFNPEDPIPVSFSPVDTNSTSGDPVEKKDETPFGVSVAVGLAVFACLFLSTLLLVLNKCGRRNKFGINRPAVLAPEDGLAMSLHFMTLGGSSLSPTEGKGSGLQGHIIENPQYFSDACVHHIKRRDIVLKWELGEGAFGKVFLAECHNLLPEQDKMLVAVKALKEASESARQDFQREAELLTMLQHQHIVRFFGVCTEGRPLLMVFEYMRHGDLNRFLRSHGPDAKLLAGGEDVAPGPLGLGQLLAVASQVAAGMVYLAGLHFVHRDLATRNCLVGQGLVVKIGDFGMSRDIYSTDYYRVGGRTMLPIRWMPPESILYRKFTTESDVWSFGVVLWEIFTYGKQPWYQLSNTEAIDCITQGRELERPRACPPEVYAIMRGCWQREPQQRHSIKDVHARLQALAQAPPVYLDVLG
T3 sequence (Q16288 32-839): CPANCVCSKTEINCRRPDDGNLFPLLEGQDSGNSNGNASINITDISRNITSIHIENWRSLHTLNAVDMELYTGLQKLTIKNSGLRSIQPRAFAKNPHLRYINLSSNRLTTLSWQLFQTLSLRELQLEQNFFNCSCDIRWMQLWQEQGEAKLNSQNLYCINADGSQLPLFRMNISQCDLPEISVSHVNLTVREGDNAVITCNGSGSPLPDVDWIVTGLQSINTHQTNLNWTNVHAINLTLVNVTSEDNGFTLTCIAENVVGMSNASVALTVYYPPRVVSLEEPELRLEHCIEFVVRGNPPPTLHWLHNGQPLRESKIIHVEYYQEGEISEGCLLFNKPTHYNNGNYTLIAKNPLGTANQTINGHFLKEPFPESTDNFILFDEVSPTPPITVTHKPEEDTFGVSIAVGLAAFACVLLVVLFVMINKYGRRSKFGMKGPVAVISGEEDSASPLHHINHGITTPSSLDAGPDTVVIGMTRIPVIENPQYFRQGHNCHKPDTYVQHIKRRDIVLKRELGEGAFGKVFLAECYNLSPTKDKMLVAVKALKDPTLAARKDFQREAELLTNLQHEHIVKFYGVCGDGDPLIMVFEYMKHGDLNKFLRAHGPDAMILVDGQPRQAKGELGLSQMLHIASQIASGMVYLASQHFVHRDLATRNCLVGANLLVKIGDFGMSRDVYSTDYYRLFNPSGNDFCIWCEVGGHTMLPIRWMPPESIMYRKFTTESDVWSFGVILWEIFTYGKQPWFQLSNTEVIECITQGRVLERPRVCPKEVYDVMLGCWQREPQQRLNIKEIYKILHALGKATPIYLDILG

Compound | EC50 (TrkB) | EC50 (TrkA) | EC50 (TrkC) | inhibition of the binding of β-amyloid oligomers to EphB2 [1]
Cc1cccc(-n2c(=O)[nH]c(=O)n(-c3ccc(Oc4ccccc4)c(Cn4cc(F)cn4)c3)c2=O)c1 [Example 15, 1-{3-[(4-fluoro-1H-pyrazol-1-yl)methyl]-4-phenoxyphenyl}-3-(3-methylphenyl)-1,3,5-triazinane-2,4,6-trione] | 90 nM | 120 nM | – | –
COc1ccc(-n2c(=O)[nH]c(=O)n(-c3ccc(Oc4ccccc4)c(Cn4ccnc4)c3)c2=O)cc1 [Example 7, 1-{3-[(1H-imidazol-1-yl)methyl]-4-phenoxyphenyl}-3-(4-methoxyphenyl)-1,3,5-triazinane-2,4,6-trione] | 450 nM | 720 nM | – | –
1-{3-[(4-methyl-1H-imidazol-1-yl)methyl]-4-phenoxyphenyl}-3-(3-methylphenyl)-1,3,5-triazinane-2,4,6-trione+1-{3-[(5-methyl-1H-imidazol-1-yl)methyl]-4-phenoxyphenyl}-3-(3-methylphenyl)-1,3,5-triazinane-2,4,6-trione [Example 11] | 140 nM | 220 nM | – | –
Cc1cccc(-n2c(=O)[nH]c(=O)n(-c3ccc(Oc4ccccc4)c(OCc4cnc[nH]4)c3)c2=O)c1 [Example 10, 1-{3-[(1H-imidazol-5-yl)methoxy]-4-phenoxyphenyl}-3-(3-methylphenyl)-1,3,5-triazinane-2,4,6-trione] | 12000 nM | 1670 nM | – | –
CCc1ccc(Oc2ccc(-n3c(=O)[nH]c(=O)n(C)c3=O)cc2Cn2cccn2)cc1 [Example 4, 1-[4-(4-ethylphenoxy)-3-[(1H-pyrazol-1-yl)methyl]phenyl]-3-methyl-1,3,5-triazinane-2,4,6-trione] | 2070 nM | 1100 nM | – | –
Cc1cc(-n2c(=O)[nH]c(=O)n(C)c2=O)ccc1Oc1ccc(SC(F)(F)F)cc1 [toltrazuril, 1-methyl-3-(3-methyl-4-{4-[(trifluoromethyl)sulfanyl]phenoxy}phenyl)-1,3,5-triazinane-2,4,6-trione] | – | – | – | 30%
Cn1c(=O)[nH]c(=O)n(-c2ccc(-c3ccccc3)c(Cn3cccn3)c2)c1=O [Example 5, 1-methyl-3-{2-[(1H-pyrazol-1-yl)methyl]-[1,1′-biphenyl]-4-yl}-1,3,5-triazinane-2,4,6-trione] | 31000 nM | 1320 nM | – | –
Cc1cccc(-n2c(=O)[nH]c(=O)n(-c3ccc(Oc4ccccc4)c(Cn4ccnc4)c3)c2=O)c1 [Example 6, 1-{3-[(1H-imidazol-1-yl)methyl]-4-phenoxyphenyl}-3-(3-methylphenyl)-1,3,5-triazinane-2,4,6-trione] | 200 nM | 160 nM | – | –
O=c1[nH]c(=O)n(-c2ccc(Oc3ccccc3)c(Cn3cncn3)c2)c(=O)n1-c1ccccc1 [Example 3, 1-{4-phenoxy-3-[(1H-1,2,4-triazol-1-yl)methyl]phenyl}-3-phenyl-1,3,5-triazinane-2,4,6-trione] | 810 nM | 520 nM | – | –
Cc1cccc(-n2c(=O)[nH]c(=O)n(-c3ccc(Oc4ccccc4)c(-n4cnc(C)c4)c3)c2=O)c1 [Example 13, 1-[3-(4-methyl-1H-imidazol-1-yl)-4-phenoxyphenyl]-3-(3-methylphenyl)-1,3,5-triazinane-2,4,6-trione] | 470 nM | 650 nM | – | –
O=c1[nH]c(=O)n(-c2ccc(Oc3ccccc3)c(Cn3cc(F)cn3)c2)c(=O)n1-c1ccccc1 [Example 14, 1-{3-[(4-fluoro-1H-pyrazol-1-yl)methyl]-4-phenoxyphenyl}-3-phenyl-1,3,5-triazinane-2,4,6-trione] | 180 nM | 180 nM | – | –
O=c1[nH]c(=O)n(-c2ccc(Oc3ccccc3)c(Cn3cccn3)c2)c(=O)n1-c1ccccc1 [Example 1, 1-{4-phenoxy-3-[(1H-pyrazol-1-yl)methyl]phenyl}-3-phenyl-1,3,5-triazinane-2,4,6-trione] | 200 nM | 160 nM | 120 nM | –

Further lines, with some results ahead:

EC50 (TrkB) | EC50 (TrkA) | EC50 (TrkC) | Compound | inhibition of the binding of β-amyloid oligomers to EphB2 [1]
270 nM | 380 nM | 200 nM | O=c1[nH]c(=O)n(-c2ccc(Oc3ccccc3)c(Cn3ccnc3)c2)c(=O)n1-c1ccccc1 [Example 2, 1-{3-[(1H-imidazol-1-yl)methyl]-4-phenoxyphenyl}-3-phenyl-1,3,5-triazinane-2,4,6-trione] | –
170 nM | 180 nM | – | CCn1cc(Cc2cc(-n3c(=O)[nH]c(=O)n(-c4ccccc4)c3=O)ccc2Oc2ccccc2)cn1 [Example 16, 1-{3-[(1-ethyl-1H-pyrazol-4-yl)methyl]-4-phenoxyphenyl}-3-phenyl-1,3,5-triazinane-2,4,6-trione] | –
60 nM | 100 nM | – | Cc1cccc(-n2c(=O)[nH]c(=O)n(-c3ccc(Oc4ccccc4)c(Cn4cnc(F)c4)c3)c2=O)c1 [Example 12, 1-{3-[(4-fluoro-1H-imidazol-1-yl)methyl]-4-phenoxyphenyl}-3-(3-methylphenyl)-1,3,5-triazinane-2,4,6-trione] | –
120 nM | 250 nM | – | Cc1cccc(-n2c(=O)[nH]c(=O)n(-c3ccc(Oc4ccccc4)c(OCc4ncc[nH]4)c3)c2=O)c1 [Example 9, 1-{3-[(1H-imidazol-2-yl)methoxy]-4-phenoxyphenyl}-3-(3-methylphenyl)-1,3,5-triazinane-2,4,6-trione] | –
170 nM | 190 nM | – | Cc1cccc(-n2c(=O)[nH]c(=O)n(-c3ccc(Oc4ccc(F)cc4)c(Cn4ccnc4)c3)c2=O)c1 [Example 8, 1-[4-(4-fluorophenoxy)-3-[(1H-imidazol-1-yl)methyl]phenyl]-3-(3-methylphenyl)-1,3,5-triazinane-2,4,6-trione] | –
